Test results taken from patent US8003105B2, “Method of treating cancer by co-administration of anticancer agents” (Astellas Pharma Inc., priority 2006, dated 2011).

Tests used:
[1] = tested on: human lung carcinoma cell line Calu 6; experiment: Test Example 2B: docetaxel followed by YM155 (sequential), Calu 6 xenograft in nude mice; format: in vivo; conditions: for Number of CRs: animals with complete regression / animals in group; for Tumor Volume day 0 / Body Weight day 35 / Tumor Volume day 35: mean ± SEM, n=8
Experimental: (§1) The following study was conducted in the same way as Test Example 1 except for the administration timing.
B) The first day of administration was designated day 0, and observation continued until day 35. Each group (n=8) was treated as follows.
(§2) For 7-day sc continuous infusion, an osmotic pump containing either YM155 or physiological saline, was implanted in the dorsum of each animal while under anesthesia. The vehicle control group received a 7-day sc continuous infusion of physiological saline starting on day 8, and iv bolus injection of physiological saline on days 0, 4 and 8. The YM155 group received a 7-day sc continuous infusion of YM155 at 2 mg/kg/day starting on day 8, and iv bolus injection of physiological saline on days 0, 4 and 8. The docetaxel group received iv bolus injection of docetaxel at 20 mg/10 mL/kg on days 0, 4 and 8, as well as a 7-day sc continuous infusion of physiological saline starting on day 8. The combination group received both compounds instead of the vehicle, similarly to the YM155 and docetaxel groups. Results

[2] = tested on: human lung carcinoma cell line Calu 6; experiment: Test Example 2A: YM155 followed by docetaxel (sequential), Calu 6 xenograft in nude mice; format: in vivo; conditions: for Number of CRs: animals with complete regression / animals in group; for Tumor Volume day 0 / Body Weight day 35 / Tumor Volume day 35: mean ± SEM, n=8
Experimental: as §1
A) The first day of administration was designated day 0, and observation continued until day 35. Each group (n=8) was treated as follows.
For 7-day sc continuous infusion, an osmotic pump containing either YM155 or physiological saline, was implanted in the dorsum of each animal while under anesthesia. The vehicle control group received a 7-day sc continuous infusion of physiological saline starting on day 0, and iv bolus injection of physiological saline on days 7, 11 and 15. The YM155 group received a 7-day sc continuous infusion of YM155 at 2 mg/kg/day starting on day 0 and iv bolus injection of physiological saline on days 7, 11 and 15. The docetaxel group received iv bolus injection of docetaxel at 20 mg/10 mL/kg on days 7, 11 and 15, as well as a 7-day sc continuous infusion of physiological saline starting on day 0. The combination group received both compounds instead of the vehicle, similarly to the YM155 and docetaxel groups. Results

[3] = tested on: human lung carcinoma cell line Calu 6; experiment: Test Example 1: YM155 concomitant with docetaxel, Calu 6 xenograft in nude mice; format: in vivo; conditions: for Number of Complete Regressions: animals with CR / animals in group, during the experimental period to day 35; for Tumor Volume day 0: day 0 (first day of administration); for Tumor Volume day 0 / Body Weight day 35 / Tumor Volume day 35: mean ± SEM, n=8
Experimental: The dose levels are expressed in terms of YM155, the cationic moiety of the drug substance. Docetaxel hydrate (Taxotere® INJECTION) was purchased from Sanofi-Aventis Pharma Ltd. (West Lavel, FRA) and used as docetaxel.
YM155 was dissolved in and diluted with physiological saline in order to prepare dosing solutions (concentrations calculated using the following formulation: dose×mean body weight for each group/daily release volume). These solutions were prepared immediately before the implantation of an osmotic pump (Alzet® model 1007D Micro-Osmotic Pump, DURECT Co., CA, USA) into the test subjects. The solutions were then loaded into the pump. Docetaxel was diluted with physiological saline to prepare 2 mg/mL solutions immediately before administration.
The human lung carcinoma cell line Calu 6 (HTB-56, Lot No. 208280) was obtained from American Type Culture Collection (VA, USA). The cells were cultured at 37° C. in a 5% CO2 atmosphere in RPMI1640 medium supplemented with 10% heat-inactivated fetal bovine serum. The cells were collected with trypsin, suspended in PBS at 6×10^7 cells/mL, and then mixed with an equivalent volume of Matrigel® Basement Membrane Matrix (Becton Dickinson Co., Bedford, Mass., USA).
Five-week-old male nude mice (CAnN.Cg-Foxn1nu/CrlCrlj(nu/nu)) were purchased from Charles River Laboratories Japan, Inc (Kanagawa, Japan). They were maintained on a standard diet and water throughout the experiments under specific pathogen-free conditions. The cells were cultured in vitro and 3×10^6 cells/0.1 mL/mouse were grafted subcutaneously into the flank of 6-week-old nude mice. The mice with tumor volumes (length×width^2×0.5) of 97.3 to 182.7 mm^3 were divided into groups. This was done using SAS software in order to minimize intragroup and intergroup tumor volume variation.
The first day of administration was designated day 0, and observation continued until day 35. Each group (n=8) was treated as follows.
as §2, with “day 0,” for “day 8,”, “day 0.” for “day 8.”, “groups.” for “groups. Results”
Body weight and tumor diameter were measured every 3-4 days using calipers, and tumor volume was determined by calculating the volume of an ellipsoid using the formula: length×width^2×0.5. Antitumor activities are expressed as percent inhibition of tumor growth (% inh) and percent regression of the tumor (% reg). […] The percent regression of the tumor was calculated for all groups with observed tumor regression, using the following formula: 100×{1−(mean tumor volume of each group on day 35)/(mean tumor volume of each group on day 0)}. The number of Complete Regressions (CRs) in all groups were checked during the experimental period. The CR is defined by instances in which the tumor burden falls bellow the limit of palpation.
Values are expressed as the mean± the standard error of the mean (SEM). Tumor volume and body weight on day 35 were compared between each single compound group and combination group using the Student's t-test. P values of less than 5% are considered significant. SAS software was used for data processing.

[4] = tested on: lymphoma WSU-DLCL-2 cells; experiment: Test Example 6: YM155 followed by R-ICE, WSU-DLCL-2 xenograft; format: in vivo, nude mice
Experimental: The study was conducted in the same way as Test Example 5 according to the following dosage regimen.
YM155 group YM155 2 mg/kg/day (7-day sc continuous infusion)
RICE group RTX 50 mg/kg, i.v. (day 6 and 8)+(IFM 400 mg/kg+CBDCA 30 mg/kg), i.v (day 9)+ETP 10 mg/kg, i.v (day 8, 9 and 10)
YM155→RICE group YM155 2 mg/kg/day (7-day sc continuous infusion)+RTX 50 mg/kg, i.v. (day 6 and 8)+(IFM 400 mg/kg+CBDCA 30 mg/kg), i.v. (day 9)+ETP 10 mg/kg, i.v. (day 8, 9 and 10)
In the table, values are expressed as the mean±SEM (n=8, RICE group: n=6). ¶¶: P<0.01 versus an RICE group, ##: P<0.01 versus YM155 group, N.S.: no significance from RICE group (Student's t-test).

[5] = tested on: human NSCLC xenograft models; conditions: NSCLC xenograft model; Ref. 15; cited from earlier work
[6] = day 35, docetaxel 20 mg/kg/day iv day 0, 4, 8, YM155 2 mg/kg/day 7-day sc infusion from day 8
[7] = day 35, YM155 2 mg/kg/day 7-day sc infusion from day 0, docetaxel 20 mg/kg/day iv day 7, 11, 15
[8] = day 35, YM155 2 mg/kg/day 7-day sc infusion from day 0, docetaxel 20 mg/kg/day iv day 0, 4, 8

Compound	Number of CRs [1]	Tumor Volume day 0 [1] [mm^3]	Body Weight day 35 [1, 6]	Tumor Volume day 35 [1, 6] [mm^3]	Number of CRs [2]	Tumor Volume day 0 [2] [mm^3]	Body Weight day 35 [2, 7] [g]	Tumor Volume day 35 [2, 7] [mm^3]	Number of Complete Regressions [3]	Tumor Volume day 0 [3] [mm^3]	Antitumor Activity, percent inhibition of tumor growth (% inh) [3, 8] [%]	Body Weight day 35 [3, 8]	Tumor Volume day 35 [3, 8] [mm^3]	further results
CC(=O)O[C@@]12CO[C@@H]1C[C@H](O)[C@@]1(C)C(=O)[C@H](O)C3=C(C)[C@@H](OC(=O)[C@H](O)[C@@H](NC(=O)OC(C)(C)C)c4ccccc4)C[C@@](O)([C@@H](OC(=O)c4ccccc4)[C@H]21)C3(C)C [Docetaxel, Docetaxel hydrate]	0/8	210.0 ± 22.6	23.84 ± 1.01 ^ g	67.2 ± 15.1	0/8	209.1 ± 18.3	21.03 ± 0.94	188.8 ± 29.1	0/8	121.4 ± 7.0	> 100	24.95 ± 0.54 ^ g	58.0 ± 20.4	Antitumor Activity, percent inhibition of tumor growth (% inh) [1, 6]: > 100%; Antitumor Activity, percent regression of the tumor (% reg) [1, 6]: 68%; Antitumor Activity, percent inhibition of tumor growth (% inh) [2, 7]: > 100%; Antitumor Activity, percent regression of the tumor (% reg) [2, 7]: 10%; Antitumor Activity, percent regression of the tumor (% reg) [3, 8]: 52%
COCCn1c2c([n+](Cc3cnccn3)c1C)C(=O)c1ccccc1C2=O.[Br-] [YM155, 1-(2-methoxyethyl)-2-methyl-4,9-dioxo-3-(pyrazin-2-ylmethyl)-4,9-dihydro-1H-naphtho[2,3-d]imidazol-3-ium bromide]	0/8	206.9 ± 21.8	24.80 ± 1.01 ^ g	1437.5 ± 225.5	0/8	208.5 ± 18.6	26.25 ± 0.25	251.8 ± 50.7	0/8	121.4 ± 6.9	99	26.13 ± 0.56 ^ g	142.3 ± 16.9	Number of CRs ([4]; animals with complete regression / animals in group): 0/8; Tumor Volume day 0 ([4]; day 0, mean ± SEM, n=8, RICE group n=6): 405.1 ± 13.8 mm^3; Antitumor Activity, percent inhibition of tumor growth (% inh) ([4]; day 28, YM155 2 mg/kg/day 7-day sc infusion, RICE given day 6-10): 45%; Body Weight day 28 ([4]; day 28, YM155 2 mg/kg/day 7-day sc infusion, RICE given day 6-10, mean ± SEM): 28.81 ± 0.23 g; Tumor Volume day 28 ([4]; day 28, YM155 2 mg/kg/day 7-day sc infusion, RICE: RTX 50 mg/kg iv day 6, 8 + IFM 400 mg/kg + CBDCA 30 mg/kg iv day 9 + ETP 10 mg/kg iv day 8-10, mean ± SEM): 1181.3 ± 174.7 mm^3; anti-tumor activity of 7-day continuous infusion [5]: induced tumor regression
